Laboratory results published in publication PMC5341405, “Lapachol, a compound targeting pyrimidine metabolism, ameliorates experimental autoimmune arthritis” (Arthritis Research & Therapy, 2017).

What was measured:
[1] = Tolerability and serum liver enzymes during CIA protocol; format: in vivo, DBA1/J mice
Protocol: (§1) Male DBA/1 J mice were injected i.d. at the base of the tail with 200 μg bovine type II collagen (CII; a gift from Dr. David D. Brand, University of Tennessee Health Science Center) emulsified in Freund’s complete adjuvant (CFA) on day 0. Mice were boosted i.d. with CII (200 μg emulsified in Freund’s incomplete adjuvant (IFA)) on day 21. Mice were monitored daily for signs of arthritis. Scores were assigned based on erythema, swelling, or ankylosis present in each paw on a scale of 0 to 3, giving a maximum score of 12 per mouse. After arthritis induction, mice were treated orally with LAP (3 mg/kg and 10 mg/kg) or LEF (3 mg/kg) or saline daily. The clinical score was addressed every day after collagen boost. All mice were euthanized for histologic assessment of the hind limbs 4 weeks after the boost.
Serum concentrations of aspartate aminotransferase (AST) or alanine aminotransferase (ALT) were measured using commercial kits according to the manufacturer’s instructions (ID Labs Biotechnology Inc., London, Canada).

DHODH = test system: DHODH; design: method as in PMID 10658902; conditions: cited from earlier work
human CD4 T cells = experiment: Annexin-V/propidium iodide staining for apoptotic cell death; format: cell-based; conditions: human CD4 T cells, 10, 30, and 100 μM
Protocol: We next assessed the antiproliferative effect of LAP. To this end, freshly isolated mouse CD4 T cells were labelled with Dye Efluor 670 and stimulated with anti-CD3/CD28 in the presence of LAP or LEF (10, 30, and 100 μM) for 4 days. […] We also investigated the effect of LAP in human CD4 T cells isolated from the peripheral blood of healthy donors. […] Additionally, we performed annexin-V/propidium iodide (PI) staining of human CD4 T cells treated with LAP or LEF to assess apoptotic cell death. […] Thus, the reduction of T-cell proliferation by LAP below 100 μM was primarily due to inhibition of the proliferative response rather than a reduction of cellular viability by toxicity.

[2] = test system: collagen-induced arthritis (CIA) in DBA1/J mice; experiment: Collagen-induced arthritis (CIA); format: in vivo
Protocol: as §1
Femur-tibial joints were collected 4 weeks after CII boost, fixed in 4% (vol/vol) buffered formalin and decalcified in 10% EDTA for 2–3 weeks. The tissues were then trimmed, dehydrated in ethanol, and embedded in paraffin for the preparation of the slides. Histological assessment was carried out following routine staining. Joint sections were stained with hematoxylin and eosin (H&E) to analyze synovitis (inflammatory cell influx and synovial hyperplasia) or Safranin-O to visualize proteoglycan depletion and cartilage destruction. The severity of the joint damage was scored according to the criteria described by Wang et al.: 0 = no destruction; 1 = minimal erosion; 2 = slight to moderate erosion in a limited area; 3 = more extensive erosion; 4 = general destruction.
Interleukin (IL)-17 and interferon (IFN)-γ cytokines were measured by enzyme-linked immunosorbent assay (ELISA) from hind paw homogenate of an individual mouse using antibodies according to the manufacturer’s instructions (R&D Systems, Minneapolis, MN, USA). The results were expressed as pg of cytokine/mg of tissue.
Myeloperoxidase (MPO) activity in tissue homogenates was used as an index of neutrophil infiltration into paws from CIA mice as previously described.

CC(C)=CCC1=C(O)C(=O)c2ccccc2C1=O [LAP, 2-hydroxy-3-(3methyl-2-butenyl)-1,4-naphthoquinone]
serum levels of ALT or AST ([1]; 3 mg/kg and 10 mg/kg orally daily, CIA protocol, 4 wk after boost): did not alter the serum levels of ALT or AST | tolerability (general symptoms of toxicity: piloerection, diarrhea, weight loss, prostration) ([1]; 3 mg/kg and 10 mg/kg orally once a day for 4 weeks, CIA mice): well tolerated without apparent side effects | inhibition of DHODH activity (DHODH): can inhibit DHODH activity | toxicity (apoptotic cell death, annexin-V/PI) (human CD4 T cells): only the highest concentration of LAP (100 μM) was toxic | severity of arthritis (clinical score and number of affected paws) ([2]; 3 mg/kg and 10 mg/kg orally daily, both doses): markedly attenuated the severity of arthritis | IL-17A levels in hind paws ([2]; dose of 10 mg/kg orally daily, 4 weeks after boost, ELISA): significant reduction in IL-17A levels | MPO activity in hind paws (neutrophil infiltration) ([2]; orally daily, 4 weeks after boost, vs vehicle-treated CIA mice): reduced MPO activity | histopathological features of arthritis severity (H&E, Safranin-O, knee joint) ([2]; orally daily, 4 weeks after boost, vs vehicle-treated group): markedly reduced all histopathological features of arthritis severity
